Measured values as given in BindingDB's records for PubMed 32898763 (n/a, 2020).

Assays:
[1] = target: Prostaglandin G/H synthase 1 (Homo sapiens, UniProt P23219); experiment: Inhibition of COX-1 (unknown origin)
[2] = target: T1, Prostaglandin G/H synthase 2 (Homo sapiens, UniProt P35354); experiment: Inhibition of COX-2 (unknown origin)
T1 sequence (P35354 whole entry): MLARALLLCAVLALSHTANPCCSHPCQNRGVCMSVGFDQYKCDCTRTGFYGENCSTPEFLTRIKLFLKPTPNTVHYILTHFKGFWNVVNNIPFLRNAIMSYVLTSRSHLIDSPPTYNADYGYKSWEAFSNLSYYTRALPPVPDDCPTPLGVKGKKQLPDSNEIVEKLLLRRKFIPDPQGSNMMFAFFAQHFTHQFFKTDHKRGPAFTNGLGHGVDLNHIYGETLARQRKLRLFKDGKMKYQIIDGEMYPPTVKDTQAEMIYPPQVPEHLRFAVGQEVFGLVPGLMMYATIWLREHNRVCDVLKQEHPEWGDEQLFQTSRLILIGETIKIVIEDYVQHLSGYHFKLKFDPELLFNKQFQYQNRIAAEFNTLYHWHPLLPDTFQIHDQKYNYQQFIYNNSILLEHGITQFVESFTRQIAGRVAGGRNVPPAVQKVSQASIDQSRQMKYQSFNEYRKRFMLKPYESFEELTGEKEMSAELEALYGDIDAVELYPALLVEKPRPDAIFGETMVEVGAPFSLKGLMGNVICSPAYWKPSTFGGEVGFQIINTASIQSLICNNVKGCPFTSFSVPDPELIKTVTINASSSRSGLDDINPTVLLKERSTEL

Prostaglandin G/H synthase 1, sequence (P23219 whole entry): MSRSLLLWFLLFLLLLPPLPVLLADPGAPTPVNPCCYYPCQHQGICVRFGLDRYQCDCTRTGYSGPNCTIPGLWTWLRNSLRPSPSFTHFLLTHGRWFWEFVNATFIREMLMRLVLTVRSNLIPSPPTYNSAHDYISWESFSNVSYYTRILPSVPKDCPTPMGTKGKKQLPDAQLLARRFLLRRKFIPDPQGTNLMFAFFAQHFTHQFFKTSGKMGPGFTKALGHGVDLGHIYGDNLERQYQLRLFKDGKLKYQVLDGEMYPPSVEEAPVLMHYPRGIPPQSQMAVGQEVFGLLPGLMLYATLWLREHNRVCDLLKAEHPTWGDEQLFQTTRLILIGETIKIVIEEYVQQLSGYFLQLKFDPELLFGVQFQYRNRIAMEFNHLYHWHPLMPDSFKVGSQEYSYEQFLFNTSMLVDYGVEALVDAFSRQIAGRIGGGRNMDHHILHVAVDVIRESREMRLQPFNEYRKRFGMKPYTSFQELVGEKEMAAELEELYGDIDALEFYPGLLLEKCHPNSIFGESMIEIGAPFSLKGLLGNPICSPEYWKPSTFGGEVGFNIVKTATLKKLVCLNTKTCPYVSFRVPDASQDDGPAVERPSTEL

| IC50 [1] [µM] | IC50 [2] [µM] | Structure (SMILES) |
| --- | --- | --- |
| 9.56 | 0.1 | CCC(=CCN1Cc2cc(Cl)cc3nc(S)n(c23)CC1C)CC (stereo unspecified) |
| 9.56 | 0.1 | CC1Cn2c(S)nc3cc(Cl)cc(c32)CN1CC1CCC1 (stereo unspecified) |
| 9.56 | 0.1 | CCC(=CCN1Cc2cc(C)cc3nc(O)n(c23)C[C@@H]1C)CC |
